No end group written: not given here.
Assays:
[1] = system: primary neuronal cell cultures from rat cerebral cortex; assay: Assay of cyclic AMP formation; format: cell-based; conditions: for Increase in cyclic AMP production over the basal level: forskolin 1 μM, PACAP27 0.1 μM, VIP 3 μM, rat neuronal cell cultures
[2] = system: astrocyte cultures from rat cerebral cortex; conditions: ref Woldan-Tambor et al. [2011]; cited from earlier work
[3] = system: OX2R; conditions: heterologous expression systems; ref Sakurai et al. [1998]; Ammoun et al. [2003]; cited from earlier work

Row | Compound | Increase in cyclic AMP production over the basal level [1] | also measured
1 | C=C[C@@]1(C)CC(=O)[C@]2(O)[C@@]3(C)[C@@H](O)CCC(C)(C)[C@@H]3[C@H](O)[C@H](OC(C)=O)[C@@]2(C)O1 [forskolin] | three- to fivefold over the basal level | 
2 | orexin A: neuropeptide, an agonist of OX1R and OX2R; from NeoMPS (QPLPDCCRQKTCSCRLYELLHGAGNHAAGILTL; ends and bridges not checked; cysteine pairing not given here; UniProt O43612 34-66, looked up) |  | Effect on cyclic AMP synthesis in astrocyte cultures [2]: stimulatory effect
3 | [Ala^11-D-Leu^15]orexin B |  | Effect on basal cyclic AMP accumulation ([1]; 0.001–1 μM, cultured rat cortical neurons, data not shown): No significant effects
4 | PACAP27 | three- to fivefold over the basal level | 
5 | orexin B: neuropeptide derived from preproorexin; literature affinity only |  | Affinity of OX2R for orexins A and B [3]: equal affinity
6 | VIP: vasoactive intestinal peptide (human, porcine, and rat) (HSDAVFTDNYTRLRKQMAVKKYLNSILN; ends and bridges not checked; UniProt P01282 125-152, looked up) | three- to fivefold over the basal level | 

Reference: publication PMC3260434 (Journal of Molecular Neuroscience, 2011)
